What was measured:
[1] = test system: AGE formation in human methemoglobin (Hb); experiment: Uninterrupted glycation of human methemoglobin with glucose, anti-AGE ELISA; assay type: biochemical; details: Hb 1 mg/ml, 1.0 M glucose, 3 weeks; inhibitors 0.5, 3, 15 and 50 mM
Method: (§1) Uninterrupted Glycation with Glucose Bovine serum albumin, ribonuclease A, and human hemoglobin were incubated with glucose at 37° C. in 0.4 M sodium phosphate buffer of pH 7.5 containing 0.02% sodium azide. The protein, glucose (at 1.0 M), and prospective inhibitors (at 0.5, 3, 15 and 50 mM) were introduced into the incubation mixture simultaneously. Solutions were kept in the dark in capped tubes. Aliquots were taken and immediately frozen until analyzed by ELISA at the conclusion of the reaction. The incubations were for 3 weeks (Hb) or 6 weeks (RNase, BSA).
(§2) ELISA detection of AGE products. The general method of Engvall (1981, Methods Enzymol. 70:419-439) was used to perform the ELISA. Typically, glycated protein samples were diluted to approximately 1.5 ug/ml in 0.1 M sodium carbonate buffer of pH 9.5 to 9.7. The protein was coated overnight at room temperature onto 96-well polystyrene plates by pippetting 200 ul of the protein solution in each well (0.3 ug/well). After coating, the protein was washed from the wells with a saline solution containing 0.05% Tween-20. The wells were then blocked with 200 ul of 1% casein in carbonate buffer for 2 h at 37° C. followed by washing. Rabbit anti-AGE antibodies were diluted at a titer of about 1:350 in incubation buffer, and incubated for 1 h at 37° C., followed by washing. In order to minimize background readings, antibodies R479 used to detect glycated RNase were raised against glycated BSA, and antibodies R618 used to detect glycated BSA and glycated Hb were raised against glycated RNase. An alkaline phosphatase-conjugated antibody to rabbit IgG was then added as the secondary antibody at a titer of 1:2000 or 1:2500 (depending on lot) and incubated for 1 h at 37° C., followed by washing. The p-nitrophenylphosphate substrate solution was then added (200 ul/well) to the plates, with the absorbance of the released p-nitrophenolate being monitored at 410 nm with a Dynatech MR 4000 microplate reader.
(§3) Aliquots were assayed by ELISA using R618 anti-AGE antibodies.
as §3

[2] = test system: AGE formation during uninterrupted glycation of ribonuclease A (RNase A) by ribose; experiment: Uninterrupted ribose glycation assay, RNase; assay type: biochemical, bovine; details: continuous 0.05 M ribose, 6 weeks, inhibitors 0.5-50 mM
Method: as §2
as §1, with “ribose glycation assays” for “Glycation with Glucose”, “ribose” for “glucose”, “protein (10 mg/ml or 1 mg/ml), 0.05 M ribose,” for “protein, glucose (at 1.0 M),”, “BSA). Glycation reactions were monitored for constant pH throughout the duration of the experiments.” for “BSA).”
The inhibitory effects of vitamin B1 and B6 derivatives on the kinetics of antigenic AGE formation were evaluated by polyclonal antibodies specific for AGEs. Initial inhibition studies were carried out on the glycation of bovine ribonuclease A (RNase) in the continuous presence of 0.05 M ribose, which is the concentration of ribose where the rate of AGE formation is near maximal.

[3] = test system: AGE formation during uninterrupted glycation of bovine serum albumin (BSA) by ribose; experiment: Uninterrupted ribose glycation assay, BSA; assay type: biochemical; details: 0.05 M ribose, 6 weeks, inhibitors 0.5-50 mM
Method: as §2
as §1, with “ribose glycation assays” for “Glycation with Glucose”, “ribose” for “glucose”, “protein (10 mg/ml or 1 mg/ml), 0.05 M ribose,” for “protein, glucose (at 1.0 M),”, “BSA). Glycation reactions were monitored for constant pH throughout the duration of the experiments.” for “BSA).”

[4] = test system: post-Amadori AGE formation, RNase Amadori intermediate; experiment: Interrupted (post-Amadori) ribose glycation assay, RNase; assay type: biochemical, bovine; details: RNase
Method: as §2
Glycation Modifications Modification with ribose or glucose was generally done at 37° C. in 0.4 M phosphate buffer of pH 7.5 containing 0.02% sodium azide. The high buffer concentration was always used with 0.5 M ribose modifications. The solutions were kept in capped tubes and opened only to remove timed aliquots that were immediately frozen for later carrying out the various analyses. “Interrupted glycation” experiments were carried out by first incubating protein with the ribose at 37° C. for 8 or 24 h, followed by immediate and extensive dialysis against frequent cold buffer changes at 4° C. The samples were then reincubated by quickly warming to 37° C. in the absence of external ribose. Aliquots were taken and frozen at various intervals for later analysis. Due to the low molecular weight of RNase, protein concentrations were remeasured after dialysis even when low molecular weight cut-off dialysis tubing was used. An alternative procedure was also devised (see below) in which interruption was achieved by simple 100-fold dilution from reaction mixtures containing 0.5 M ribose. Protein concentrations were estimated from UV spectra. The difference in molar extinction between the peak (278 nm) and trough (250 nm) was used for RNase concentration determinations in order to compensate for the general increase in UV absorbance that accompanies glycation. Time-dependent UV-difference spectral studies were carried out to characterize the glycation contributions of the UV spectrum. […]
Glycation was first carried out by incubating protein (10 mg/ml) with 0.5 M ribose at 37° C. in 0.4 M phosphate buffer at pH 7.5 containing 0.2% sodium azide for 24 h in the absence of inhibitors. Glycation was then interrupted to remove excess and reversibly bound (Schiff base) sugar by extensive dialysis against frequent cold buffer changes at 4° C.

ribose-treated rats = experiment: Ribose rat model, intervention by compounds (Phase III); assay type: in vivo; details: for Albumin effusion rate (AER): absence of ribose, pyridoxamine and TPP 250 mg/kg, aminoguanidine 25 mg/kg
Method: Sixty rats were randomized into 9 different groups, including those exposed to 1 M ribose for 8 days in the presence and absence of aminoguanidine, pyridoxamine, and thiamine pyrophosphate as follows:
(ii) high dose (250 mg/kg body weight) of pyridoxamine (“compound-P”);
(iii) high dose (250 mg/kg body weight of thiamine pyrophosphate (“compound-T” or “TPP”); and
(iv) low dose (25 mg/kg body weight) of aminoguanidine (“AG”).
(i) only 1 M ribose-saline (2×9 cc daily IP for 8 days);
(ii) ribose plus low dose (“LP”) of pyridoxamine (25 mg/kg body weight injected as 0.5 ml with 9 cc ribose);
(iii) ribose plus high dose (“HP”) of pyridoxamine (250 mg/kg body weight injected as 0.5 ml with 9 cc ribose);
(iv) ribose plus high dose (“HT”) of thiamine pyrophosphate (250 mg/kg body weight injected as 0.5 ml with 9 cc ribose); and
(v) ribose plus low dose of amino guanidine (25 mg/kg body weight injected as 0.5 ml with 9 cc ribose).
Unlike Phase II, no ribose was administered in drinking water. Intervention compounds were pre-administered for one day prior to introducing them with ribose.

[5] = 24 h in 0.5 M ribose, then free ribose removed, 37° C.
[6] = co-administered with 1 M ribose, low dose 25 mg/kg
[7] = co-administered with 1 M ribose, 250 mg/kg
[8] = compound alone, 250 mg/kg, no ribose

| inhibition of post-Amadori AGE formation ([4]; 50 mM inhibitor) | Albumin effusion rate (AER) (ribose-treated rats) | SMILES | inhibition of antigenic AGE formation (ELISA) [1] | inhibition of overall kinetics of AGE formation from ribose [2] | inhibition of overall kinetics of AGE formation from ribose [3] | inhibition of post-Amadori AGE formation [4, 5] | Albumin effusion rate (ribose-treated rats; [6]) | creatinine clearance (ribose-treated rats; [6]) | creatinine clearance (ribose-treated rats; [7]) | creatinine clearance (ribose-treated rats; [8]) |
| --- | --- | --- | --- | --- | --- | --- | --- | --- | --- | --- |
| less than 15% | elevated | N=C(N)NN [aminoguanidine, reference compound] | only inhibited the rate of AGE formation, and not the final levels of AGE formed | decreased the rate of AGE formation on RNase, but did not reduce the final level of AGE formed | appearing to slow the rate of AGE formation without significantly affecting the final levels of AGE formed | modest effects on blocking the formation of antigenic AGEs in RNase | restored to normal | normalized | – | – |
| – | elevated | Cc1ncc(CO)c(CN)c1O [pyridoxamine] | the most effective inhibitors in each of their respective families | best inhibitor of the “final” levels of AGE formed on RNase | exhibited some inhibition at lower concentrations, and at the highest concentration tested appeared to inhibit the final levels of AGE formed more effectively than any of the other B6 derivatives | nearly complete inhibition of AGE formation with RNase at 15 mM and 50 mM | restored to normal | normalized | only partial protection against the ribose-induced decrease in creatinine clearance | but not pyridoxamine, appeared to decrease creatinine clearance |
| – | elevated | Cc1ncc(C[n+]2csc(CCO[P@](=O)(O)OP(=O)(O)O)c2C)c(N)n1 [thiamine pyrophosphate] | the most effective inhibitors in each of their respective families | both the rate of AGE formation and the final levels of AGE produced at the plateau appeared diminished | inhibited the final levels of AGEs formed, without greatly affecting the rate of AGE formation | inhibited AGE formation more effectively than the other B1 derivatives | – | – | only partial protection against the ribose-induced decrease in creatinine clearance | diminished it |

From patent US6716858B1, “Methods for inhibiting diabetic complications” (Kansas University Medical Center, priority 1995, dated 2004)
